This is an account of results in ChEMBL document CHEMBL6071145, “A novel theranostic strategy for myocardial infarction through neutralization of endogenous SO2 using an endoplasmic reticulum-targeted fluorescent probe” (Eur J Med Chem, 2024).

Data set [1] has as its system A549. In words: Cytotoxicity against human A549 cells assessed as reduction in cell viability at 100 uM incubated for 48 hrs by CCK-8 assay. Type of data set: functional, cell-based.
In data set [2] the test system is H9c2. The experiment in a line: Cytotoxicity against rat H9c2 cells at 80 uM incubated for 48 hrs by CCK-8 assay. Format: toxicity, cell-based. To be noted: h9c2, 48 h. A general note: Formazan colour is commonly taken as a measure of viable cells.
Data set [3] in a line: Drug uptake in human A549 cells assessed as increase in fluorescence ratio at 5 uM pretreated with NaHSO3 for 1 hr followed by SO2 for 1 hr by confocal microscopic analysis. Type of data set: ADME, cell-based. Conditions: a549, 2 h.
Data set [4] in a line: Photostability of compound in human A549 cells at 5 uM measured within 3 min in the presence of light-irradition. Format: ADME, cell-based. Conditions: a549, 0.05 h.
Data set [5] is described as follows: Drug uptake in human A549 cells assessed as decrease in red channel at 5 uM treated with SO2 incubated for 1 hr by confocal microscopic analysis. To be noted: a549, 1 h. Format: ADME, cell-based.
The species named for data set [6] is Mus musculus. In words: Cardioprotective activity against myocardial infarction male C57BL mouse assessed as decrease in cardiac fibrosis by Masson staining based analysis. Type of data set: functional, organism-based.
The nature of data set [7]: Drug uptake in human A549 cells assessed as increase in green channel at 5 to 100 uM pretreated with NaHSO3 for 1 hr followed by SO2 for 1 hr by confocal microscopic analysis. Conditions: a549, 2 h, dose 5-100 µM. Format: ADME, cell-based.
Data set [8] in a line: Drug localization in golgi body of human A549 cells assessed as colocalization incubated for 20 mins by Golgi-Tracker Green staining based analysis. Type of data set: ADME, subcellular. To be noted: a549, 20 min.
Data set [9] is described as follows: Drug localization in nucleus of human A549 cells assessed as colocalization incubated for 20 mins by […] staining based analysis. Format: ADME, subcellular. To be noted: a549, 20 min.
For data set [10], the species on record is Mus musculus. In words: Cardioprotective activity against myocardial infarction male C57BL mouse assessed as increase in BCL-2 expression in ischemic region by Western blot analysis. Type of data set: functional, organism-based. (In general: In western blotting, separated proteins are transferred to a membrane and probed.)
A short description of data set [11]: Drug uptake in human A549 cells assessed as increase in green channel at 5 uM treated with SO2 for 1 hr by confocal microscopic analysis. Type of data set: ADME, cell-based. Conditions: a549, 1 h.
Data set [12] is filed under the species Mus musculus. In words: Cardioprotective activity against myocardial infarction male C57BL mouse assessed as […] in apoptosis by TUNEL staining based analysis. Type of data set: functional, organism-based.
For data set [13], the species on record is Mus musculus. The experiment in a line: Cardioprotective activity against myocardial infarction male C57BL mouse assessed as decrease in tissue structure by HE staining based analysis. Type of data set: functional, organism-based.
The subject of data set [14] is H9c2. The experiment in a line: Cardioprotective activity against H2O2 induced rat H9c2 cells assessed as production of BCL-2 protein at 0 to 50 uM preincubated with compound for 1 hr followed by H2O2 addition for 0.5 hr by Western blot analysis. To be noted: dose 0-50 µM, time 90.0 min. Format: functional, cell-based.
Data set [15] in a line: Drug localization in lysosomes of human A549 cells assessed as colocalization incubated for 20 mins by lysoTracker Green DND-26 staining based analysis. Type of data set: ADME, subcellular, Lysosome. To be noted: a549, 20 min.
Data set [16] can be described thus: Drug localization in mitochondria of human A549 cells assessed as colocalization incubated for 20 mins by MitoTracker Green staining based analysis. Format: ADME. To be noted: a549, 20 min.
Data set [17] is described as follows: Drug uptake in human A549 cells assessed as decrease in red channel at 5 to 100 uM pretreated with NaHSO3 for 1 hr followed by SO2 for 1 hr by confocal microscopic analysis. Type of data set: ADME, cell-based. Conditions: a549, 2 h, dose 5-100 µM.
Data set [18] has as its system L02. In words: Cytotoxicity against human LO2 cells assessed as reduction in cell viability at 100 uM incubated for 48 hrs by CCK-8 assay. Format: toxicity, cell-based. Conditions: l02, 48 h.
Data set [19] in a line: Drug localization in endoplasmic reticulum of human A549 cells assessed as colocalization incubated for 20 mins by ER-Tracker Green staining based anlaysis. Type of data set: ADME, subcellular. Conditions: a549, 20 min.
The nature of data set [20]: Drug uptake in human A549 cells assessed as increase in fluorescence ratio at 5 uM treated with SO2 for 1 hr by confocal microscopic analysis. Type of data set: ADME, cell-based. Conditions: a549, 1 h.
The species entered for data set [21] is Mus musculus. In words: Cardioprotective activity against myocardial infarction male C57BL mouse assessed as increase in BCL-2 expression in peri-ischemic region by Western blot analysis. Format: functional, organism-based.
Data set [22] concerns H9c2. In words: Cardioprotective activity against H2O2 induced rat H9C2 cells assessed as increase in green fluorescence at 5 to 50 uM preincubated with compound for 1 hr followed by H2O2 addition for 0.5 hr by confocal microscopic analysis. Format: functional, cell-based. To be noted: dose 5-50 µM, time 90.0 min.
Data set [23] has as its system H9c2. In words: Cardioprotective activity against H2O2 induced rat H9c2 cells assessed as decrease in red fluorescence at 5 to 50 uM preincubated with compound for 1 hr followed by H2O2 addition for 0.5 hr by confocal microscopic analysis. Format: functional, cell-based. Conditions: dose 5-50 µM, time 90.0 min.
Data set [24] relates to H9c2. The experiment in a line: Cardioprotective activity against H2O2 induced rat H9c2 cells preincubated with compound for 1 hr followed by H2O2 addition for 0.5 hr by confocal microscopic analysis. To be noted: time 90.0 min. Format: functional, cell-based.
Data set [25] can be described thus: Drug uptake in male C57BL mouse model assessed as increase in fluorescence signal in apex cordis at 25 mg/kg. Type of data set: ADME, organism-based, Apex of heart. To be noted: in vivo.

Active and inactive are the calls of the source. The rule behind the calls is not given here.

For `O=S(=O)([O-])CCCC[n+]1c(/C=C/c2ccc(N(c3ccccc3)c3ccccc3)cc2)sc2ccccc21`, the result in [1], in data set [6], in [10], in [12], in data set [13] and in [14] was Active. Also, the outcome in data set [21], in [22] and in data set [23] was Active. Also, the Activity result in data set [2] and in data set [18] was “Non-Toxic” throughout. The Drug uptake entry is “Active” in data set [3]; “Active” in data set [5]; “Active” in [7]; “Not Active” in data set [8]; “Not Active” in data set [9]; “Active” in [11]. The Drug uptake entry in data set [15] is recorded as “Not Active”; in data set [16] it was “Not Active”; in data set [17] it was “Active”; in data set [19], “Active”; in [20], “Active”. Besides, the Stability entry in data set [4] was “Stable”.
`O=S(=O)([O-])CCCC[n+]1c(CC(c2ccc(N(c3ccccc3)c3ccccc3)cc2)S(=O)(=O)[O-])sc2ccccc21.[Na+]` (stereo unspecified): the Activity result in [2] was “Non-Toxic”. In addition, in data set [24], the outcome was inactive. For the same molecule, the Drug uptake entry in [25] is listed as “Active”.
